Assay results as given in patent US20260248702A1, “Composition Comprising a UV-Filter Stabilizer” (Symrise AG, priority 2022, published 2026).

Assay: Photostability test: E1%/cm absorbance measurement before and after irradiation with 5 MED
Format: physicochemical
Conditions: for Photostability result in words / Lost (%) after irradiation with 5 MED (1,250 J/m^2) / E max (nm): E1%/cm solution; for Lost (%) after irradiation with 5 MED (1,250 J/m^2): absorbance loss at E max; for E max (nm): wavelength of maximum absorbance; for loss of the photo-unstable UV-filter (absorbance loss), UV-filter alone versus in combination with the MAA compound: after irradiation with 5 MED, no wavelength given in the sentence; for photo-stabilizing effect in words: summary statements on the photostability test
Method: The photostability of a UV-filter can be determined in vitro using absorbance measures, by which the loss in absorbance of the UV-filter before and after irradiation, for example with 5 MED, is measured. The loss in absorbance of the UV-filter goes along with the degradation of the UV-filter by one or more photochemical reactions, including photofragmentation, isomerization, tautomerization, photoaddition and the like. UV-filters with an absorbance loss≥20% after irradiation are classified as photo-unstable. Alternatively, the photostability of a UV-filter can be determined by analytical measures, that is by quantitative determination of the amount (i.e. concentration) by which the filter is degraded.
UV-filters are usually tested for photostability to ensure that no degradation of the UV-filter itself or in combination with other substances takes place.
The UV-filter stabilizing properties of mycosporine-like amino acid compounds were explored by comparing the behaviour of UV-filter alone relative to UV-filters in combination with a certain mycosporine-like amino acid compound.
In the present case single photo-unstable UV-filters as well as formulations of photo-unstable filters with certain mycosporine-like amino acid compounds were subjected to photostability testing, described in detail below, to determine the retention of absorption of UVA and UVB radiation (full spectrum analysis) after exposing the sample to 5 MED (minimal erythema) dose (1 MED=250 J/m^2).
Sample preparation: The substance or the formulation to be tested was dissolved in a suitable solvent. For this purpose, a certain amount of the substance or formulation was transferred by means of an analytical balance/pipette into a graduated flask and filled with the selected solvent. The filling up to the calibration mark of the graduated flask was carried out only after complete dissolution of the substance and temperature control at 20° C.
Preparation of solution E 1%/cm: 100 mg of the substance or formulation to be tested were weighed into a graduated flask and filled up to 100 ml with the corresponding solvent. A clear solution was obtained. If necessary, an ultrasonic bath can be used to improve solubility. For further dilution the sample was adjusted to a temperature of 20° C. 1 ml of the dissolved solution was added into a second graduated 100 ml flask, filled up to 100 ml at a temperature of 20° C. The final concentration of the thus obtained solution was 0.001%. (E1%/cm). This solution was used for absorbance measurement and irradiation. Said solution was transferred to a 10 mm quartz cuvette with closure.
Irradiation: Irradiation of the sample was performed for […] with 700 W/m^2 emitted by an Atlas SUN Test CPS. This corresponds to an amount of energy of 5 MED (minimal erythema) dose (=1,250 J/m^2). At the same time, the temperature of the devise was adjusted to max 30° C. in order to avoid strong heating of the sample.
Measurement: The absorbance measurement of the sample in the quartz cuvette with closure (10 mm) was carried out in a wavelength range of 200 nm to 700 nm with a Lambda 25 UV spectrometer. A blank absorbance test was carried out with the corresponding solvent for preparing the samples as described above. The absorbance measurement of the samples was carried out before (pre-irradiation) and after irradiation emitted by a Atlas SUN Test CPS (see above).
The amplitude of the absorbance curve reflects the degree of protection. The higher the amplitude of the curve, the greater the absorbance and the more protection provided at that wavelength. Within the UVB portion of the spectrum (290 nm to 320 nm) this amplitude correlates with the SPF. The greater the breadth of the curve, the more protection provided against longer wave UV ration. In other words, the greater the breadth of the curve, the broader the spectrum of sun protection provided. […]

[1] = after irradiation with 5 MED (1,250 J/m^2)

COc1ccc(C(=O)CC(=O)c2ccc(C(C)(C)C)cc2)cc1 [Butyl Methoxydibenzoylmethane, Butyl-Methoxydibenzoylmethane or Avobenzone]
Absorbance loss at 358 nm (E1%/cm solution (0.001%), after irradiation with 5 MED (1,250 J/m^2), read at 358 nm): 7.05%
Photostability result in words [1]: photostable in this kind of medium
Lost (%) after irradiation with 5 MED (1,250 J/m^2): 7.05%
E max (nm): 358 nm
loss of the photo-unstable UV-filter (absorbance loss), UV-filter alone versus in combination with the MAA compound: 7.05%

CCCCC(CC)COC(=O)C=Cc1ccc(OC)cc1 (stereo not drawn) [Ethylhexyl Methoxycinnamate, Ethylhexyl-Methoxycinnamate]
Photostability result in words [1]: Not photostable

CCOC(=O)CNC1=C/C(=N/c2ccccc2)CC(C)(C)C1 [MAA-1, ethyl 2-[[5,5-dimethyl-3-phen-ylimino-cyclohexen-1-yl]amino] acetate]
Absorbance loss at 321 nm (E1%/cm solution (0.001%), after irradiation with 5 MED (1,250 J/m^2), read at 321 nm): 0.53%
Photostability result in words [1]: Very photostable molecule
photo-stabilizing effect in words: pronounced photo-stabilizing effect

CC1(C)CC(NCC(=O)O)=C/C(=N/c2ccc(S(=O)(=O)O)cc2)C1 [MAA-28, 2-[(5,5-dimethyl-3-(4-sulfo-phenyl)imino-cyclohexen-1-yl)amino]acetic acid]
Absorbance loss at 335 nm (E1%/cm solution (0.001%), after irradiation with 5 MED (1,250 J/m^2), read at 335 nm): 15.03%
Photostability result in words [1]: A photostable molecule

COc1ccc(/C=C/C(=O)OCCC(C)C)cc1 [Isoamyl p-Methoxycinnamate, Isoamyl-p-Methoxycinnamate]
Absorbance loss at 310 nm (E1%/cm solution (0.001%), after irradiation with 5 MED (1,250 J/m^2), read at 310 nm): 30.5%
Photostability result in words [1]: Not photostable
Lost (%) after irradiation with 5 MED (1,250 J/m^2): 30.50%
E max (nm): 310 nm
loss of the photo-unstable UV-filter (absorbance loss), UV-filter alone versus in combination with the MAA compound: 30.50%
Critical Wavelength (nm) (wavelength at which 90% of the total area under the UV protection curve (280-400 nm) is reached): 324 nm

COc1ccc(/N=C2\CC(C)(C)CC3=C2SCC(C(=O)O)N3)cc1OC (stereo not drawn) [MAA-13, 8-((3,4-dimethoyxphenyl)-imino)-6,6-dimethyl-3,4,5,6,7,8-hexahydro-2-H-benzol[b][1,4]thiazine-3-car-boxylic acid]
Absorbance loss at 364 nm (E1%/cm solution (0.001%), after irradiation with 5 MED (1,250 J/m^2), read at 364 nm): 5.13%
Photostability result in words [1]: Very photostable molecule
photo-stabilizing effect in words: pronounced photo-stabilizing effect

CC1(C)CC(NCC(=O)O)=C/C(=N/c2ccccc2)C1 [MAA-20, 2-[(5,5-dimethyl-3-phenyl-imino-cyclohexen-1-yl)-amino]acetic acid]
Photostability result in words [1]: Very photostable molecule
